This is an account of results in US20080269200A1, “Indole Derivatives and Use Thereof as Kinase Inhibitors in Particular Ikk2 Inhibitors” (SmithKline Beecham Corporation, priority 2004, published 2008).

For the test, the target named is T1, Recombinant human IKK2 (residues 1-737) (Homo sapiens, UniProt O14920).
T1 construct: Recombinant human IKK2 (residues 1-737) was expressed in baculovirus as a C-terminal GST-tagged fusion protein; GST (C); made in house
T1 sequence (O14920 1-737): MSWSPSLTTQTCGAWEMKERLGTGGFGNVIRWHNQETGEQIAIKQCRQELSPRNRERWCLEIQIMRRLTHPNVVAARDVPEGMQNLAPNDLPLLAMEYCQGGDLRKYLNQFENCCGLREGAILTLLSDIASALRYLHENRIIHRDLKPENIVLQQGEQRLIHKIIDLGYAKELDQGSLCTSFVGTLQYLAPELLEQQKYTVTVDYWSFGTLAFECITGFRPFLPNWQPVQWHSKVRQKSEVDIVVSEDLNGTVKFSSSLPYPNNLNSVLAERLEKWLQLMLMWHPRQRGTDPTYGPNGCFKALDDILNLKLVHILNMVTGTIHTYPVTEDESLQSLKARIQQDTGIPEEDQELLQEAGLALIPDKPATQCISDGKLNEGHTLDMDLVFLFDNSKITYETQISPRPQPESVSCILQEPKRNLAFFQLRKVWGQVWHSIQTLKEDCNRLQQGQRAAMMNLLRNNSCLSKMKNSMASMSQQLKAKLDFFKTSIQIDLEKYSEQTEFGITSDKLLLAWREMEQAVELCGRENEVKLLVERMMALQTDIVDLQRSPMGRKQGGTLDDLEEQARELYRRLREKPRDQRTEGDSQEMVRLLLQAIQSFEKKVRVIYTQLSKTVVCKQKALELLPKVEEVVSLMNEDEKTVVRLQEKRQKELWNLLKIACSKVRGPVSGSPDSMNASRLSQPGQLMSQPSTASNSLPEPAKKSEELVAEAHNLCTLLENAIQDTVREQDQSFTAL
Nature of the test: IKK2 Assay (TR-FRET). The format is biochemical. The following applies: IKK2 5 nM, GST-IκBα substrate 25 nM, ATP 1 μM, 30 minutes at room temperature. The protocol: Recombinant human IKK2 (residues 1-737) was expressed in baculovirus as a C-terminal GST-tagged fusion protein, and its activity was assessed using a time-resolved fluorescence resonance energy transfer (TR-FRET) assay. Briefly, IKK2 (5 nM final) diluted in assay buffer (50 mM HEPES, 10 mM MgCl2, 1 mM CHAPS pH 7.4 with 1 mM DTT and 0.01% w/v BSA) was added to wells containing various concentrations of compound or DMSO vehicle (3% final). The reaction was initiated by the addition of GST-IκBα substrate (25 nM final)/ATP (1 μM final), in a total volume of 30 μl. The reaction was incubated for 30 minutes at room temperature, then terminated by the addition of 15 μl of 50 mM EDTA. Detection reagent (15 μl) in buffer (100 mM HEPES pH 7.4, 150 mM NaCl and 0.1% w/v BSA) containing antiphosphoserine-IκBα-32/36 monoclonal antibody 12C2 (Cell Signalling Technology, Beverly Mass., USA) labelled with W-1024 europium chelate (Wallac O Y, Turku, Finland), and an APC-labelled anti-GST antibody (Prozyme, San Leandro, Calif., USA) was added and the reaction was further incubated for 60 minutes at room temperature. The degree of phosphorylation of GST-IκBα was measured using a Packard Discovery plate reader (Perkin-Elmer Life Sciences, Pangboume, UK) as a ratio of specific 665 nm energy transfer signal to reference europium 620 nm signal.
With `NC(=O)c1cc(-c2ccc(Cl)cc2)cc2cc[nH]c12` [Example 7, 5-(4-chlorophenyl)-1H-indole-7-carboxamide], the IC50 was < 15.8 µM.
For `NC(=O)c1cc(Br)cc2cc[nH]c12` [Intermediate 7, 5-bromo-1H-indole-7-carboxamide] the value was < 15.8 µM.
For `NC(=O)c1cc(Br)cc2c(C3CCNCC3)c[nH]c12` [Intermediate 30, 5-bromo-3-(4-piperidinyl)-1H-indole-7-carboxamide] the value was < 15.8 µM.
